The results in this text go back to patent US20250340554A1, “5-Amino-1H-Pyrrolo[3,2-b]Pyridine-2-Carboxamide Derivatives as MTA-Cooperative Inhibitors of PRMT5” (BeOne Medicines I GmbH, priority 2023, published 2025).

The subject of assay [1] is HCT116-MTAP-KO. Put plainly: Compounds cell killing in HCT116 isogenic pair (Cell Titer-Glo viability), MTAP-KO cells. Type of assay: cell-based. Particulars: Homo sapiens, HCT-116, 144 h, 6 days, 0-10 μM compound, * = more than 50% viability inhibition at tested concentration without a full curve. From the text:
(§1) HCT116 cell line was obtained from ATCC (CCL-247). It has a mutation in codon 13 of the ras proto-oncogene and can be used as a positive control for PCR assays of mutation in this codon. HCT116-MTAP-KO was knocked-out-MTAP-gene based HCT116, and one single clone was passed for this assay. HCT116-mock-RNA-KO was knocked-out-mock-gene based HCT116 with MTAP wildtype genotype. The base medium for HCT116 isogenic pair is RPMI 1640, HEPES (Gibco, 22400105). To make the complete growth medium, add the following components to the base medium: fetal bovine serum to a final concentration of 10% (Gibco, 10099-141C). The cell line was grown in a humidified 5% CO2 atmosphere at 37° C. and regularly tested for the presence of mycoplasma with MycoAlert™ PLUS Mycoplasma Detection Kit (Lonza, LT07-710).
(§2) • Seed HCT116-mock-RNA-KO (400/well) or HCT116-MTAP-KO (400/well) cells into a 96-well plate (Greiner: 655090), 100 μL/well. • Incubate at 37° C., 5% CO2, overnight. • Add 50 μL fresh growth-medium containing serial dilution of compounds for a final compound concentration of 0-10 μM to each well. • Incubate at 37° C., 5% CO2, 6 days. • The cell viability detected by Cell Titer-Glo (Promega, G7573). Add 70 μL of CellTiter-Glo® reagent in each well. • Incubate at room temperature for 10 minutes to stabilize luminescent signal. • Analyze with Microplate Reader (TECAN, SPARK) and fit IC50 using Prism® 9.

The test system of assay [2] is HCT116-mock-RNA-KO. The assay is described as follows: Compounds cell killing in HCT116 isogenic pair (Cell Titer-Glo viability), mock-RNA-KO cells (MTAP wildtype). Particulars: Homo sapiens, HCT-116, 144 h, 6 days, 0-10 μM compound. In kind it is cell-based.
Text: as §1, §2

`Cc1cc2[nH]c(C(=O)N(Cc3ccc(-c4c(C)cnn4C)cc3F)C3CCCc4cccnc43)cc2nc1N` (centres unmarked) [Example A18, 5-amino-N-(4-(1,4-dimethyl-1H-pyrazol-5-yl)-2-fluorobenzyl)-6-methyl-N-(5,6,7,8-tetrahydroquinolin-8-yl)-1H-pyrrolo[3,2-b]pyridine-2-carboxamide]: the figures for the IC50 in assay [1] and in assay [2] were 21 nM and 2580 nM, respectively.

As to `Cc1cc2[nH]c(C(=O)N(Cc3ccc(-c4c(F)cccc4F)cn3)[C@@H]3CCCc4cccnc43)c(I)c2nc1N` [Example A19, (R)-5-amino-N-((5-(2,6-difluorophenyl)pyridin-2-yl)methyl)-3-iodo-6-methyl-N-(5,6,7,8-tetrahydroquinolin-8-yl)-1H-pyrrolo[3,2-b]pyridine-2-carboxamide], the IC50 is less than 4.6 nM in assay [1] and 288 nM in assay [2].

For the molecule `Cc1cc2[nH]c(C(=O)N(Cc3ccc(-c4ccccc4)cn3)C3CCC3)cc2nc1N` [Example B1, 5-amino-N-cyclobutyl-6-methyl-N-((5-phenylpyridin-2-yl)methyl)-1H-pyrrolo[3,2-b]pyridine-2-carboxamide], the values for the half-inhibitory concentration (IC50) in assay [1] and in assay [2] were 359 nM and greater than 10000 nM, respectively.

Consider `COCC(COC)N(Cc1ccc(-c2c(F)cccc2F)cn1)C(=O)c1cc2nc(N)c(C)cc2[nH]1` [Example B2, 5-amino-N-((5-(2,6-difluorophenyl)pyridin-2-yl)methyl)-N-(1,3-dimethoxypropan-2-yl)-6-methyl-1H-pyrrolo[3,2-b]pyridine-2-carboxamide], for which the concentration for half-maximal inhibition (IC50) in assay [1] amounted to 5.5 nM; in assay [2], 1220 nM.

On to `Cc1cc2[nH]c(C(=O)N(Cc3ccc(-c4c(F)cccc4F)cn3)C3CC(F)(F)C3)cc2nc1N` [Example B3, 5-amino-N-(3,3-difluorocyclobutyl)-N-((5-(2,6-difluorophenyl)pyridin-2-yl)methyl)-6-methyl-1H-pyrrolo[3,2-b]pyridine-2-carboxamide], for which the IC50 is 864 nM in assay [1] and greater than 10000 nM in assay [2].

Take `Cc1cc2[nH]c(C(=O)N(Cc3ccc(-c4ccccc4)cn3)C3CC3)cc2nc1N` [Example B4, 5-amino-N-cyclopropyl-6-methyl-N-((5-phenylpyridin-2-yl)methyl)-1H-pyrrolo[3,2-b]pyridine-2-carboxamide]: the results for the IC50 in assay [1] and in assay [2] were 7820 nM and greater than 10000 nM, respectively.

Regarding `Cc1cc2[nH]c(C(=O)N(Cc3ccc(-c4c(F)cccc4F)cn3)CC3CC3)cc2nc1N` [Example B5, 5-amino-N-(cyclopropylmethyl)-N-((5-(2,6-difluorophenyl)pyridin-2-yl)methyl)-6-methyl-1H-pyrrolo[3,2-b]pyridine-2-carboxamide], the IC50 in assay [1] is 606 nM; in assay [2] it was 3620 nM.

Consider `CO[C@H]1C[C@H](N(Cc2ccc(-c3ccccc3)cn2)C(=O)c2cc3nc(N)c(C)cc3[nH]2)C1` [Example B6, 5-amino-N-((1r,3r)-3-methoxycyclobutyl)-6-methyl-N-((5-phenylpyridin-2-yl)methyl)-1H-pyrrolo[3,2-b]pyridine-2-carboxamide], for which the IC50 was 1730 nM in assay [1] and greater than 10000 nM in assay [2].

Turning to `CO[C@H]1C[C@@H](N(Cc2ccc(-c3ccccc3)cn2)C(=O)c2cc3nc(N)c(C)cc3[nH]2)C1` [Example B7, 5-amino-N-((1s,3s)-3-methoxycyclobutyl)-6-methyl-N-((5-phenylpyridin-2-yl)methyl)-1H-pyrrolo[3,2-b]pyridine-2-carboxamide], the IC50 was 2050 nM in assay [1] and greater than 10000 nM in assay [2].

Turning to `Cc1cc2[nH]c(C(=O)N(Cc3ccc(-c4ccccc4)cn3)C3CCCOC3)cc2nc1N` (centres unmarked) [Example B8, 5-amino-6-methyl-N-((5-phenylpyridin-2-yl)methyl)-N-(tetrahydro-2H-pyran-3-yl)-1H-pyrrolo[3,2-b]pyridine-2-carboxamide], the 50% inhibitory concentration (IC50) in assay [1] was 1350 nM; in assay [2] it was greater than 10000 nM.

A word on the IC50: it is the point on the concentration scale where inhibition reaches its midpoint. Lower therefore signals inhibition by little substance.
